Data on 19 compounds can be found in US8735414B2 (priority 2009, dated 2014).

A value given as a limit tells only on which side of the number the result lay.

Data set [1] has as its system bicistronic HCV replicon (replicon RNA, GenBank Accession No. AJ242654). The data set is described as follows: HCV Replicon Assay. The format is cell-based. The settings on record: Hepatitis C virus, 72 h, read-out: Replicon IC50.

What is called IC50 is the midpoint of a concentration-inhibition curve. In general, melting point refers to the temperature of the solid-liquid transition. Turning to `COc1cc2c(cc1F)c(C#N)c(-c1ccc(S(=O)(=O)NC(CF)CF)cn1)n2CC1CC1` [compound 225, 6-[3-cyano-1-(cyclopropylmethyl)-5-fluoro-6-methoxy-1H-indol-2-yl]-N-(1,3-difluoropropan-2-yl)pyridine-3-sulfonamide], the melting point is 196 to 199 °C. The IC50 in data set [1] is less than 500 nM.

`CCc1cc2c(cc1F)c(C(N)=O)c(-c1ccc(S(=O)(=O)N[C@@H](C)C(F)(F)F)cn1)n2C1CCCC1` [compound 830, 1-cyclopentyl-6-ethyl-5-fluoro-2-(5-{[(2S)-1,1,1-trifluoropropan-2-yl]sulfamoyl}pyridin-2-yl)-1H-indole-3-carboxamide] gave a melting point of 237 to 238 °C. The IC50 in data set [1] is less than 500 nM.

Turning to `C[C@H](NS(=O)(=O)c1ccc(-c2c(C#N)c3cc(F)ccc3n2C2C=CCCC2)nc1)C(F)(F)F` (stereo partly drawn) [compound 413, 6-[3-cyano-1-(cyclohex-2-en-1-yl)-5-fluoro-1H-indol-2-yl]-N-[(2S)-1,1,1-trifluoropropan-2-yl]pyridine-3-sulfonamide], the melting point was 186 to 187 °C. In data set [1], the IC50 was less than 500 nM.

With `C[C@H](NS(=O)(=O)c1cnc(-c2c(C#N)c3cc(F)ccc3n2C2CCC2)nc1)C(F)(F)F` [compound 451, 2-(3-cyano-1-cyclobutyl-5-fluoro-1H-indol-2-yl)-N-[(2S)-1,1,1-trifluoropropan-2-yl]pyrimidine-5-sulfonamide], the melting point lay within 198 to 203 °C. For the same compound, the IC50 in data set [1] is less than 500 nM.

As for `N#Cc1c(-c2ccc(S(=O)(=O)NC(CF)CF)cn2)n(C2CCC2)c2cc(N3CCOCC3)ccc12` [compound 322, 6-[3-cyano-1-cyclobutyl-6-(morpholin-4-yl)-1H-indol-2-yl]-N-(1,3-difluoropropan-2-yl)pyridine-3-sulfonamide], the melting point is 241 to 242 °C. Further, the IC50 in data set [1] lay within 2000 to 5000 nM.

The compound `Cc1ccc2c(c1)c(C(N)=O)c(-c1ccc(S(=O)(=O)N[C@@H](C)C(F)(F)F)cn1)n2-c1cnccn1` [compound 916, 5-methyl-1-(pyrazin-2-yl)-2-(5-{[(2S)-1,1,1-trifluoropropan-2-yl]sulfamoyl}pyridin-2-yl)-1H-indole-3-carboxamide] gave a melting point of 240 to 245 °C. The IC50 in data set [1] was less than 500 nM.

The compound `Cc1cc2c(cc1F)c(C#N)c(-c1ccc(S(=O)(=O)N[C@@H](C)C(F)(F)F)cn1)n2-c1cncs1` [compound 973, 6-[3-cyano-5-fluoro-6-methyl-1-(1,3-thiazol-5-yl)-1H-indol-2-yl]-N-[(2S)-1,1,1-trifluoropropan-2-yl]pyridine-3-sulfonamide] registered a melting point of 234 to 238 °C. Moreover, the IC50 in data set [1] is less than 500 nM.

In turn, `Cc1ccc2c(c1)c(C#N)c(-c1ccc(S(=O)(=O)NC3(C(F)(F)F)CC3)cn1)n2C1CCCC1` [compound 313, 6-(3-cyano-1-cyclopentyl-5-methyl-1H-indol-2-yl)-N-[1-(trifluoromethyl)cyclopropyl]pyridine-3-sulfonamide] had a melting point of 209 to 214 °C. Moreover, in data set [1], the IC50 was less than 500 nM.

`CCc1cc2c(cc1F)c(C(N)=O)c(-c1ccc(NS(=O)(=O)C(C)(C)C)cn1)n2C1CCCCC1` [compound 999, 2-{5-[(tert-butylsulfonyl)amino]pyridin-2-yl}-1-cyclohexyl-6-ethyl-5-fluoro-1H-indole-3-carboxamide] came in with a melting point of 264 to 265 °C. The IC50 in data set [1] is less than 500 nM.

The compound `N#Cc1c(-c2ccc(S(=O)(=O)NC(CF)CF)cn2)n(C2CCC2)c2cc(Cl)c(F)cc12` [compound 50, 6-(6-chloro-3-cyano-1-cyclobutyl-5-fluoro-1H-indol-2-yl)-N-(1,3-difluoropropan-2-yl)pyridine-3-sulfonamide] had a melting point of 211 to 213 °C. For the same compound, the 50% inhibitory concentration (IC50) in data set [1] was less than 500 nM.

`CCc1cc2c(cc1F)c(C#N)c(-c1ccc(S(=O)(=O)N[C@@H](C)C(F)(F)F)cn1)n2-c1ccncn1` [compound 964, 6-[3-cyano-6-ethyl-5-fluoro-1-(pyrimidin-4-yl)-1H-indol-2-yl]-N-[(2S)-1,1,1-trifluoropropan-2-yl]pyridine-3-sulfonamide] displayed a melting point of 202 to 206 °C. For the same compound, the IC50 in data set [1] was less than 500 nM.

Turning to `N#Cc1c(-c2ccc(S(=O)(=O)NC(CF)CF)cn2)n(C2CCC2)c2ccc(Cl)cc12` [compound 30, 6-(5-chloro-3-cyano-1-cyclobutyl-1H-indol-2-yl)-N-(1,3-difluoropropan-2-yl)pyridine-3-sulfonamide], the melting point fell in the range of 182 to 186 °C. For the same compound, the IC50 in data set [1] is less than 500 nM.

Consider `Cc1cc(NS(=O)(=O)C(C)(C)C)ncc1-c1c(C(N)=O)c2cc(F)c(OC(F)F)cc2n1[C@H](C)C1CC1` [compound 1087, 2-{6-[(tert-butylsulfonyl)amino]-4-methylpyridin-3-yl}-1-[(1R)-1-cyclopropylethyl]-6-(difluoromethoxy)-5-fluoro-1H-indole-3-carboxamide], for which the melting point lay within 250 to 254 °C. Further, the IC50 in data set [1] was less than 500 nM.

On to `CC(C)(NS(=O)(=O)c1ccc(-c2c(C#N)c3ccc(OC(F)F)cc3n2-c2ccccc2)nc1)C(F)(F)F` [compound 612, 6-[3-cyano-6-(difluoromethoxy)-1-phenyl-1H-indol-2-yl]-N-(1,1,1-trifluoro-2-methylpropan-2-yl)pyridine-3-sulfonamide], for which the melting point lay within 218 to 220 °C. In addition, the IC50 in data set [1] was less than 500 nM.

The compound `C[C@H](NS(=O)(=O)c1ccc(-c2c(C#N)c3cc(F)ccc3n2CC2CC2)nc1)C(F)(F)F` [compound 436, 6-[3-cyano-1-(cyclopropylmethyl)-5-fluoro-1H-indol-2-yl]-N-[(2S)-1,1,1-trifluoropropan-2-yl]pyridine-3-sulfonamide] gave a melting point of 165 to 167 °C. For the same compound, the IC50 in data set [1] was less than 500 nM.

In turn, `CCc1cc2c(cc1F)c(C#N)c(-c1ccc(S(=O)(=O)N[C@@H](C)C(F)(F)F)cn1)n2-c1cc(Cl)ccn1` [compound 993, 6-[1-(4-chloropyridin-2-yl)-3-cyano-6-ethyl-5-fluoro-1H-indol-2-yl]-N-[(2S)-1,1,1-trifluoropropan-2-yl]pyridine-3-sulfonamide] came in with a melting point of 185 to 190 °C. Further, the IC50 in data set [1] was less than 500 nM.

`N#Cc1c(-c2ccc(S(=O)(=O)NC(CF)CF)cn2)n(C2CC2)c2cc(OC(F)F)ccc12` [compound 42, 6-[3-cyano-1-cyclopropyl-6-(difluoromethoxy)-1H-indol-2-yl]-N-(1,3-difluoropropan-2-yl)pyridine-3-sulfonamide]: the melting point is 219 to 220 °C. Moreover, the IC50 in data set [1] is less than 500 nM.

Take `Cc1cc2c(C#N)c(-c3ccc(S(=O)(=O)NC(CF)CF)cn3)n(C3CCC3)c2cc1Cl` [compound 505, 6-(6-chloro-3-cyano-1-cyclobutyl-5-methyl-1H-indol-2-yl)-N-(1,3-difluoropropan-2-yl)pyridine-3-sulfonamide]: the melting point fell in the range of 195 to 196 °C. The IC50 in data set [1] was less than 500 nM.

As to `CC(C)NS(=O)(=O)c1cnc(-c2c(C#N)c3cc(Cl)ccc3n2C2CCC2)nc1` [compound 114, 2-(5-chloro-3-cyano-1-cyclobutyl-1H-indol-2-yl)-N-(propan-2-yl)pyrimidine-5-sulfonamide], the melting point is > 198 °C (dec.). For the same compound, the IC50 in data set [1] was less than 500 nM.
